Measured values from PubChem BioAssay (NCI).
“And” between values parts separate entries of the source, which are not always exact repeats. Equal values may be shown once.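 Step 1: Grow cells in 96-well plates. Step 2: Expose to compound for 48 hours at 5 concentrations. Step 3: Interpolate endpoints linearly; if unreached, use highest concentration. GI50: concentration for 50% inhibition of growth. TGI marks complete inhibition of growth.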

Assays:
Assay in all cases: growth of human tumour cells (NCI), 48 h
NCI-H226 lung = tested on: NCI-H226 lung
KM12 colon = tested on: KM12 colon
HT29 colon = tested on: HT29 colon
SK-OV-3 ovarian = tested on: SK-OV-3 ovarian
SNB-75 CNS = tested on: SNB-75 CNS
A549 NSCLC = tested on: A549 NSCLC
MCF7 breast = tested on: MCF7 breast
NCI-H23 lung = tested on: NCI-H23 lung
SF-539 CNS = tested on: SF-539 CNS
RPMI-8226 leukemia = tested on: RPMI-8226 leukemia

SMILES	GI50 (NCI-H226 lung)	TGI (NCI-H226 lung)	GI50 (KM12 colon)	TGI (KM12 colon)	GI50 (HT29 colon)	TGI (HT29 colon)	GI50 (SK-OV-3 ovarian)	TGI (SK-OV-3 ovarian)	GI50 (SNB-75 CNS)	TGI (SNB-75 CNS)	GI50 (A549 NSCLC)	TGI (A549 NSCLC)	GI50 (MCF7 breast)	TGI (MCF7 breast)	GI50 (NCI-H23 lung)	TGI (NCI-H23 lung)	GI50 (SF-539 CNS)	TGI (SF-539 CNS)	GI50 (RPMI-8226 leukemia)	TGI (RPMI-8226 leukemia)
CC(=O)Nc1ccc(S(=O)(=O)N2C(=O)CCC2C(=O)Nc2ccccc2)cc1 (stereo not drawn)	3.16 µM	20.9 µM	0.214 µM	11.3 µM	2.06 µM	19.4 µM	2.87 µM	18.8 µM	1.63 µM	6.86 µM	0.721 µM	19.2 µM	0.73 µM	14.7 µM	2.23 µM	18.6 µM	0.542 µM	4.4 µM	0.83 µM	15 µM
COc1ncc(-c2ccc3nc(N)n(-c4ccccc4C(F)(F)F)c(=O)c3c2)cc1S(=O)(=O)Nc1ccc(F)cc1F	8.68 µM	> 100 µM	1.06 µM	12.2 µM	0.635 µM	4.53 µM	4.85 µM	> 100 µM	0.866 µM	> 100 µM	0.653 µM	> 100 µM	2.05 µM	29.4 µM	0.693 µM	38.1 µM	1.22 µM	20.4 µM	0.3 µM	2.54 µM
Cc1ccccc1C1N=C2Oc3ccccc3C=C2C(=O)N1 (stereo not drawn)	> 100 µM	> 100 µM	15 µM	> 100 µM	4.48 µM	> 100 µM	0.66 µM	> 100 µM	1.51 µM	> 100 µM	3.55 µM	> 100 µM	0.793 µM	> 100 µM	2.5 µM	> 100 µM	1.75 µM	6.88 µM	62.9 µM	> 100 µM
FC(F)(F)c1ccc(-c2cnc(-c3nn[nH]n3)nc2NC2CCCCCC2)cc1	> 10 µM	> 10 µM	> 10 µM	> 10 µM	> 10 µM	> 10 µM	> 10 µM	> 10 µM	> 10 µM	> 10 µM	> 10 µM	> 10 µM	> 10 µM	> 10 µM	> 10 µM	> 10 µM	> 10 µM	> 10 µM	> 10 µM	> 10 µM
N/C(=N\O)c1cn(C2OC(CO)C(O)C2O)c2ncnc(N)c12 (stereo not drawn)	0.446 µM	49.6 µM	0.188 µM		0.226 µM	18.6 µM	0.0884 µM	1.76 µM	0.18 µM	6.17 µM	0.126 µM	20.1 µM	0.056 µM	1.07 µM	0.229 µM	5.18 µM	0.255 µM	3.51 µM	0.162 µM	0.625 µM
C=C(C)[C@@H]1CC[C@]2(C(=O)OC)CC[C@]3(C)[C@H](CC[C@@H]4[C@@]5(C)CC/C(=N\OCCC(=NCCC#N)NOCCC#N)C(C)(C)[C@@H]5CC[C@]43C)[C@@H]12	5.43 µM	15.5 µM	9.35 µM	> 50 µM	6.7 µM	26.2 µM	10.8 µM	> 50 µM	31.2 µM	> 50 µM	5.27 µM	> 50 µM	3.68 µM	> 50 µM	7.59 µM	> 50 µM	11 µM	> 50 µM	4.91 µM	42.7 µM
CN(C)CCCn1c2c(c3ccc(N4CCNCC4)cc3c1=O)C(=O)c1ccccc1-2	0.564 µM	2.9 µM	1.13 µM	3.07 µM	0.351 µM	1.9 µM	1.05 µM	3.51 µM	0.947 µM	2.55 µM	0.224 µM	2.23 µM	0.296 µM	1.78 µM	1.05 µM	2.64 µM	1.61 µM	3.16 µM	0.271 µM	0.978 µM
N#CCC1CCN(c2nc(Nc3ccc(N4CCC(O)CC4)cc3)c3c(=O)[nH]ncc3n2)CC1	0.639 µM	> 100 µM	0.038 µM	> 100 µM	0.283 µM	> 100 µM	0.267 µM	1.88 µM	0.337 µM	2.43 µM	0.455 µM	> 100 µM	0.297 µM	> 100 µM	0.732 µM	> 100 µM	0.869 µM	2.82 µM	> 100 µM	> 100 µM
CC1SC(c2ccc(OCc3ccccc3)cc2)N(NC(=O)C(O)(c2ccccc2)c2ccccc2)C1=O (stereo not drawn)	3.79 µM	15.8 µM	2.29 µM	6.32 µM	3.05 µM	7.68 µM	9.49 µM	33.2 µM	3.72 µM	18.1 µM	4.68 µM	20.8 µM	4.37 µM	22.4 µM	2.7 µM	13.8 µM	14 µM	42.6 µM	2.05 µM	6.13 µM
Nc1c2ccccc2nc2ccccc12	1.24 µM and 2.81 µM	3.21 µM and 8.24 µM	2.04 µM and 3.27 µM	7.58 µM and 14 µM	0.98 µM and 1.94 µM	3.23 µM and 7.34 µM	2.18 µM and 3.22 µM	9.21 µM and 22 µM	2.46 µM and 3.11 µM	6 µM and 10.4 µM	1.52 µM and 2.87 µM	3.94 µM and 8.81 µM	1.62 µM and 3.02 µM	9.14 µM and 10.8 µM	1.8 µM and 3.18 µM	5.49 µM and 15.4 µM	2.56 µM and 4.87 µM	7.93 µM and 16.2 µM	3.26 µM and 1.48 µM	18.6 µM and 5.94 µM
C/C=C/C(C/C=C(\C)CO[Si](C)(C)C(C)(C)C)O[Si](C)(C)C(C)(C)C (stereo not drawn)		> 100 µM		> 100 µM		> 100 µM		> 100 µM		> 100 µM		> 100 µM		> 100 µM		> 100 µM		> 100 µM		> 100 µM
CCc1ccc2cc3c(ccc4ccccc43)c3c2c1CC3	> 100 µM	> 100 µM	> 100 µM	> 100 µM	> 100 µM	> 100 µM	> 100 µM	> 100 µM	> 100 µM	> 100 µM	> 100 µM	> 100 µM	0.6 µM	> 100 µM	> 100 µM	> 100 µM	> 100 µM	> 100 µM	> 100 µM	> 100 µM
CCN(CC)CCN1C(=O)c2cccc3cc(N)cc(c23)C1=O		36.6 µM		66.9 µM		18.1 µM		69.3 µM		37.1 µM		> 100 µM		> 100 µM		20.3 µM		20.4 µM		39.8 µM
C/C(=N\NC(N)=O)C(CN1CCOCC1)C(c1ccccc1)c1c(O)c2ccccc2oc1=O (stereo not drawn)		> 100 µM		> 100 µM		> 100 µM		> 100 µM		> 100 µM		> 100 µM		> 100 µM		> 100 µM		> 100 µM		> 100 µM
COc1cccc(-c2cc(-c3ccc(Nc4nc(Nc5ccc(Cl)cc5)nc(Nc5ccc(Cl)cc5)n4)cc3)nc(N)c2C#N)c1	2.16 µM	5.78 µM	2.35 µM	11.1 µM	3.96 µM	35.8 µM	24.9 µM	> 63.9 µM	9.75 µM	24.6 µM	9.41 µM	> 100 µM		5.84 µM	3.59 µM	> 54 µM	1.69 µM	4.1 µM	1.77 µM	> 27.9 µM
CCN(CC)c1ccc(C=C2C(=O)NC(=S)NC2=O)cc1	3.24 µM	10.2 µM	4.52 µM	16.6 µM	1.86 µM	3.64 µM	14.8 µM	28 µM	2.66 µM	8.75 µM	12.1 µM	28 µM	3.85 µM	13.2 µM	2.98 µM	9.72 µM	2.77 µM	6.15 µM	2.15 µM	5.49 µM
COC1=C(OC)C(=O)c2cc(C)c(=O)c(C)cc2C1=O		39.3 µM		36.6 µM		50.5 µM		41.8 µM		33 µM		38 µM		36.4 µM		34.2 µM		33.1 µM		40.7 µM
COc1cnc2c(c1)C(=O)c1c-2n(CCCN2CCNCC2)c(=O)c2cc(F)ccc12	0.15 µM	0.507 µM	0.168 µM	1.16 µM	0.15 µM	0.68 µM	0.21 µM	0.916 µM	0.368 µM	2.87 µM	0.0164 µM	0.219 µM	0.0345 µM	1.41 µM	0.233 µM	1.47 µM	0.532 µM	1.83 µM	0.0505 µM	0.458 µM
CCCN1CCCC(c2ccc(Nc3nc(Nc4cc(F)ccc4C(N)=O)c4cc[nH]c4n3)c(OC)c2)C1 (stereo not drawn)	3.04 µM	6.68 µM	2.72 µM	5.86 µM	0.0108 µM	3.15 µM	2.81 µM	5.83 µM	3.14 µM	6.43 µM	0.129 µM	4.16 µM	0.0137 µM	3.58 µM	1.5 µM	5.95 µM	2.14 µM	6.05 µM	3.65 µM	10.8 µM
Fc1cnccc1-c1nc2ccc3[nH]ncc3c2c2c1CCCC2	2.71 µM	> 100 µM	0.605 µM	> 100 µM	2.49 µM	> 100 µM	0.342 µM	3.66 µM	1.41 µM	5.54 µM	1.25 µM	> 100 µM	1.93 µM	12.1 µM	2.22 µM	59.9 µM	1.29 µM	4.54 µM	1.2 µM	6.33 µM
